# From US20230027620A1, “PENTAPEPTIDE AND METHODS OF USE THEREOF” (THE BOARD OF TRUSTEES OF THE UNIVERSITY OF ILLINOIS, priority 2019, published 2023)
# Experiments:
# HCLE cells = experiment: In vitro scratch assay, HCLE cells; assay type: cell-based, Human
# Description: Cell Culture. Human corneal limbal epithelial (HCLE) cells were cultured in keratinocyte-serum free medium (K-SFM; ThermoScientific, Waltham, Mass.) supplemented with 0.2 ng/mL rhEGF (ThermoScientific, Waltham, Mass.), bovine pituitary extract (ThermoScientific, Waltham, Mass.) and 1% Amphotericin B (ThermoScientific, Waltham, Mass.). Standard cell culture conditions (37° C., 5% CO2, >95% humidity) were used during routine passages. The culture medium was replaced every 48 hours after seeding.
# In Vitro Scratch Assay. HCE, HCLE, HELA and MCF-7 cells were cultured in a 24-well plate at 2.5×10^5 (cells/well) seeding density, and were grown to confluence on a 24-well plate. Subsequently, a straight-line scratch mark was made with a sterile P200 pipette tip. […] The wound area at each time-point was measured using Image J software (Image J 1.47v, NIH, Thornwood, Bethesda, Md.). Relative wound closure was calculated by dividing the closure of the treated wound by that of the untreated wound. […]
# A cell sprouting assay using HCE cells embedded as a spot in growth factor reduced solubilized basement membrane sold under the tradename MATRIGEL® (Corning Life Sciences, Tewksbury, Mass.) was used to determine if HST5 could promote epithelial cell migration. […] Time-lapse microscopy was performed and wound areas were analyzed at different time points. […]
# [1] = tested on: corneal epithelial wound in C57BLl6J mice; experiment: Murine corneal epithelial injury (wound healing) model; assay type: in vivo
# Description: Wounded areas were treated with Hst5, SHRGY (SEQ ID NO:2) or SP1 peptides (n=7 for each group), each tested at 80 μM concentration. Wound areas at multiple time points were measured using Image J software. […] Statistical significance was determined by a two-way ANOVA with Bonferroni post-hoc test. **P<0.01, ***P<0.001. % Wound area=(Wound area at time X/Wound area at time 0)×100.
# Wound Healing Assay. Corneal wounding experiments in mice were conducted in compliance with the Association for Research in Vision and Ophthalmology (ARVO) Statement for the Use of Animals in Ophthalmic and Vision Research. The protocol was approved by the Animal Care & Use Committee of the University of Illinois at Chicago. Twelve-to-nineteen week old C57BLl6J (Jackson Laboratory, Bar Harbor, Me.) mice were anesthetized with intraperitoneal injection of ketamine (100 mg/kg) and xylazine (5 mg/kg). After applying two drops of topical 0.5% proparacaine, a 2.0-mm area of the central epithelium was demarcated using 2-mm disposable biopsy punch and removed by an AlgerBrush II (The Alger Company, Lago Vista, Tex.). In the treatment (n=7) or the control (n=7) group, Histatin=5 (80 μM), SHRGY peptide (SEQ ID NO:2; 80 μM), or SP1 (80 μM) was applied to the cornea three times a day. At 0, 18 and 24 hours, the corneas were stained with fluorescein (FUL-GLO® Fluorescein Sodium ophthalmic strips, Akorn, Lake forest, Ill.) and photographed using a NIKON FS-2 photo-slit lamp with a NIKON D200 camera (Melville, N.Y.). Wound sizes were compared with the baseline for each mouse and the percentages of wound closure was measured using Image J software.
# For immunofluorescence, excised whole mouse eye was snap frozen in optimal cutting temperature compound (OCT; (Fisher Healthcare, Galderma, Calif.). The frozen tissues were cut into 10 μm cryosections (ThermoScientific NX50 Cryomicrotome, Waltham, Mass.) and subsequently were mounted on Superfrost plus slides (Thermofisher, Waltham, Mass.). Slides were fixed for 20 minutes in methanol, washed several times with PBS, stained with DAPI for 2 minutes, and further washed with PBS and deionized water. The slides were then mounted in Fluoro gel with Tris buffer (Electron Microscopy Sciences, Hattfield, Pa.) and observed under a confocal microscope (Zeiss LSM 710 Confocal Microscope, Oberkochen, Germany) using a 10× objective.
# Thus, Hst5 and SHRGY (SEQ ID NO:2)-containing peptides can enhance wound healing in a well-vetted model of murine corneal epithelial injury.
# [2] = tested on: epithelial cell migration; experiment: In vitro scratch assay, truncation and scrambled peptide series (FIG. 1; cell line not given); assay type: cell-based; settings: 80 μM; FIG. 1; vs untreated control
# Description: Peptides were tested for efficacy in accelerating scratch closure rates. Negative controls included untreated and multiple scrambled peptide (SP) controls. All peptides were tested at 80 μM concentration. All experiments were performed in triplicate with three technical replicates for each experiment. Statistical significance was determined by one-way ANOYA with Dunnett's post-hoc test. *p<0.05; **p<0.01; ***p<0.001. Relative closure=(% closure of treated sample)/(% closure of Untreated control).
# In Vitro Scratch Assay. HCE, HCLE, HELA and MCF-7 cells were cultured in a 24-well plate at 2.5×10^5 (cells/well) seeding density, and were grown to confluence on a 24-well plate. Subsequently, a straight-line scratch mark was made with a sterile P200 pipette tip. The cells were then washed twice with phosphate-buffered saline (PBS) to remove cellular debris. Wounded areas were then treated with the peptides provided in Table 5 at various concentrations in standard medium with reduced serum conditions (0.5% FBS in MEM medium (HCE), growth factor-free K-SFM media (HCLE), 1% FBS in DMEM medium (HeLa) and 0.5% FBS in RPMI 1640 medium (MCF-7)). Scratches were photographed microscopically at 4× magnification (Image Express Micro, Molecular Devices, San Jose, Calif.) every hour over the course of the experiment. The wound area at each time-point was measured using Image J software (Image J 1.47v, NIH, Thornwood, Bethesda, Md.). Relative wound closure was calculated by dividing the closure of the treated wound by that of the untreated wound. For all the experiments including truncated histatin-5, a final concentration of 80 μM was used. PD98059 (Calbiochem, San Diego, Calif.) at final concentration of 50 μM was used as a specific inhibitor of MEK. PD98059 was added to cell cultures at the same time as histatin peptides.
# To identify the residues of Hst5 required for epithelial cell migration, serial truncation experiments were performed, progressively deleting residues in Hst5. […] All peptides were tested at 80 μM. […] Thus, the SHRGY (SEQ ID NO:2) sequence is necessary and sufficient to promote epithelial migration rates in in vitro scratch assays.
sequence,measurement,setting,value
DSHAKRHHGYKRKFHEKHHSHRGY [Hst5],rates of in vitro scratch assay closure,"HCLE cells; 20, 50, 80 and 100 μM, compared with untreated control",dose-dependent increase in rates of in vitro scratch assay closure
same,concentration of most significant increase in scratch closure rates,"HCLE cells; tested at 20, 50, 80 and 100 μM",50 µM
same,% remaining corneal wound area compared to baseline,"[1]; 80 μM, 18 hours and 24 hours, compared to SP1, n=7",statistically significant improvement
same,"corneal wound size, histologic analysis (DAPI cross sections)",[1]; compared to SP1-treated controls,reductions in corneal wound size
same,corneal wound closure rates,"[1]; topical, 80 μM, three times a day, vs scrambled peptide control SP1",significant improvement in corneal wound closure rates
same,"scratch (wound) closure rates, relative closure",[2],significant increases in scratch closure rates
